The source of these data is US20260325580A1, “CYTOTOXICITY TARGETING CHIMERAS FOR CAR-T AND CAR-NK CELLS” (GLAXOSMITHKLINE INTELLECTUAL PROPERTY DEVELOPMENT LIMITED, priority 2023, published 2026).

Holding throughout (format): cell-based
Experiment [1] has as its system LNCap (PSMA+) cells. Put plainly: In vitro cell killing, Method 3: Live-Cell Analysis assay (Incucyte), PSMA-expressing target cells (LNCap). Conditions: Homo sapiens, 24 hour timepoint, 5:1 effector cells to target cells, EC50 in molar (M), read-out: Incucyte ® pEC50, LNCap (converted). On the procedure: (§1) In vitro cell killing of antigen expressing target cells in the presence of anti-cotinine CAR-T or CAR-NK cells and antigen matched CyTaCs was evaluated by three different methods: Cell Titler Glo assay (method 1); Real-Time Cell Analysis (RTCA) Impedance Assay (method 2); and live cell analysis assay (method 3), as described below.
Method 3: Live-Cell Analysis Assay (Incucyte®)
A Live-Cell Analysis assay (Incucyte®) was performed to assess in vitro cell killing of fluorescently-labelled antigen-expressing adherent target cells co-incubated with anti-cotinine immune effector cells (i.e. CAR-T cells, CAR-NK92 cells) and antigen matched CyTaCs. To perform the live-cell analysis assay, fluorescently-labelled antigen-expressing target cells were seeded at a density of 1.0×10^4 to 3×10^4 cells per 100 μL of media, and grown overnight in a 37° C. incubator. The next day, 50 μL of antigen-matched CyTaC solution was added at a concentration to result in 10 μM to 0.01 nM final assay concentration, followed by the addition of 50 μL anti-cotinine immune effector cells (i.e. CAR-T cells, CAR-NK92 cells) at a ratio of 5:1 effector cells to antigen-presenting target cells. The samples were placed in Live-Cell Analysis (Incucyte®) instrument, and the fluorescence of the wells was recorded every 2 hours for an additional 24 to 48 hours.
CyTaC compounds of Formula (I) were evaluated for anti-cotinine immune cell (i.e. CAR-T, CAR-NK92) mediated cell cytotoxicity as measured by fluorescence of viable cells in the above assay in one or more experimental runs and the results are shown in Table 7 and FIG. 4. Potency of the compounds of Formula (I) is reported as a pEC50 value at the 24 hour timepoint. The pEC50 value is the negative log of the EC50 value, wherein the EC50 value is half maximal effective concentration measured in molar (M). For compounds tested in more than one experimental run, the pEC50 value is reported as an average.

Experiment [2] concerns LNCap (PSMA+) cells. The experiment is described as follows: Pro-inflammatory cytokine (IFN-gamma) production assay, PSMA-expressing target cells (LNCap), MSD ELISA. Conditions: Homo sapiens, EC50 in molar (M). On the procedure: (§2) Example 4: Immune Effector Cell (i.e., Anti-Cotinine CAR-T Cell, Anti-Cotinine CAR-NK92 Cell) Functional Study: Pro-Inflammatory Cytokine (e.g., IFN-Gamma) Production Assay
(§3) An ELISA assay was performed to quantify the level of IFN-gamma production by anti-cotinine CAR-T cells in the presence of CyTaC using a Meso Scale Discovery (MSD) T-Plex Multispot Cytokine Assay System. To perform the ELISA assay, each sample was obtained from the co-incubation of anti-cotinine immune effector cells (i.e. CAR-T, CAR-NK92), antigen-expressing target cells, and respective antigen-targeting CyTaCs. CAR-T and CAR-NK cells were prepared as described above in Examples 2 and 3, respectively.
Antigen-expressing target cells were pre-seeded at a density 1.5×10^4 cells per 100 μL of media in each well of a 96-well plate and grown overnight. For functional confirmation of immune effector cell (i.e. anti-cotinine CAR-T cells, anti-cotinine CAR-NK92 cells) activation, 100 nM or 10 nM of CyTaC was introduced into each well where the target cells were seeded to activate the anti-cotinine immune effector cell. For dose response determinations, 10 μM to 0.01 nM of CyTaC was added to the wells. The anti-cotinine immune effector cells (i.e. CAR-T, CAR-NK92) were next added to the wells at a fixed ratio (between 1:1 and 10:1) of effector cells to antigen-expressing After co-incubation, the supernatants were removed from the wells and analyzed to determine IFNγ release using a pro-inflammatory cytokine production assay (Meso Scale Diagnostics V-PLEX Human IFNγ Kit) according to manufacturer's protocol.
For dose response determinations, EC50 calculations were done using Graphpad Prism Software, specifically a nonlinear regression curve fit (Y=Bottom+(Top−Bottom)/(1+10^((Log EC50−X)*HillSlope))).
CyTaC compounds of Formula (I) were tested for anti-cotinine immune cell (i.e. CAR-T, CAR-NK92) activation as measured by IFN-Gamma production in the above assay in one or more experimental runs and the results are shown in Table 5. Potency of the compounds of Formula (I) is reported as a pEC50 value. The pEC50 value is the negative log of the EC50 value, wherein the EC50 value is half maximal effective concentration measured in molar (M). For compounds tested in more than one experimental run, the pEC50 value is reported as an average.

Experiment [3] deals with PSMA-expressing target cells. Put plainly: In vitro cell killing, Method 1: CellTiter-Glo luminescent cell viability assay, PSMA-expressing target cells. Conditions: 24 hours, EC50 in molar (M). As for the experimental part:
as §1
(§4) A luminescent assay was performed to quantify the number of viable cells remaining following co-incubation of antigen-expressing adherent target cells, anti-cotinine CAR-T cells, and antigen matched CyTaCs using a CellTiter-Glo Luminescent Cell Viability Assay (Promega). […] After co-incubation, the supernatants were removed from the wells, the residual adherent target cells in the wells were then analyzed for cell viability using CellTiter-Glo® Luminescent Cell Viability Assay (Promega) according to manufacturer's instructions, as described below in Example 5.
(§5) CyTaC compounds of Formula (I) were evaluated for anti-cotinine immune cell mediated cell cytotoxicity in the above assay in one or more experimental runs and the results are shown in Table 6 below and FIGS. 2A, 2B, and 2C. […] The pEC50 value is the negative log of the EC50 value, wherein the EC50 value is half maximal effective concentration measured in molar (M). […]

For experiment [4], the system named is FAP-expressing target cells. The experiment is described as follows: In vitro cell killing, Method 1: CellTiter-Glo luminescent cell viability assay, FAP-expressing target cells. Conditions: 24 hours, EC50 in molar (M). As for the experimental part: as §1, §4, §5
Experiment [5] concerns FAP-expressing target cells. The experiment is described as follows: Pro-inflammatory cytokine (IFN-gamma) production assay, FAP-expressing target cells. Conditions: EC50 in molar (M). As for the experimental part: as §2, §3
(§6) Antigen-expressing target cells were pre-seeded at a density 1.5×10^4 cells per 100 μL of media in each well of a 96-well plate and grown overnight. […] The anti-cotinine immune effector cells (i.e. CAR-T, CAR-NK92) were next added to the wells at a fixed ratio (between 1:1 and 10:1) of effector cells to antigen-expressing After co-incubation, the supernatants were removed from the wells and analyzed to determine IFNγ release using a pro-inflammatory cytokine production assay (Meso Scale Diagnostics V-PLEX Human IFNγ Kit) according to manufacturer's protocol. […]

Experiment [6] deals with FOLR-expressing target cells. Put plainly: Pro-inflammatory cytokine (IFN-gamma) production assay, FOLR-expressing target cells. Conditions: EC50 in molar (M). On the procedure: as §2, §3, §6
Experiment [7] concerns FOLR-expressing target cells. The experiment is described as follows: In vitro cell killing, Method 1: CellTiter-Glo luminescent cell viability assay, FOLR-expressing target cells. Conditions: 24 hours, EC50 in molar (M). As for the experimental part:
as §1, §4, §5
On the technique in general: Cellular ATP, detected with luciferase, serves as a proxy for viable cell number.

Experiment [8] concerns αVβ6-expressing target cells. The experiment is described as follows: Pro-inflammatory cytokine (IFN-gamma) production assay, αVβ6-expressing target cells. Conditions: EC50 in molar (M). On the procedure:
as §2, §3, §6

In experiment [9] the test system is αVβ6-expressing target cells. The experiment is described as follows: In vitro cell killing, Method 1: CellTiter-Glo luminescent cell viability assay, αVβ6-expressing target cells. Conditions: anti-cotinine CAR-T, 24 hours, EC50 in molar (M), read-out: Cell Titler Glo pEC50 (CAR-T) (converted). As for the experimental part:
as §1, §4, §5

The mark [10] stands for this setting: CAR-T cell activation, PSMA-targeting CyTaCs, read-out: IFNγ Production pEC50, LNCap (converted).
Where [11] appears, read: anti-cotinine CAR-NK, read-out: Cell Titler Glo pEC50 (CAR-NK) (converted).
[12] abbreviates: anti-cotinine CAR-T, read-out: Cell Titler Glo pEC50 (CAR-T) (converted).
Setting [13] is: anti-cotinine CAR-NK, read-out: IFNγ Production pEC50 (CAR-NK) (converted).
Setting [14] is: anti-cotinine CAR-T, read-out: IFNγ Production pEC50 (CAR-T) (converted).

Read-outs that look alike come from different tables or passages of the source.

On to `CN1C(=O)C[C@H](C(=O)NCCNC(=O)[C@H](Cc2ccccc2)NC(=O)[C@H](Cc2ccccc2)NC(=O)CCCCCCCNC(=O)CC[C@H](NC(=O)N[C@@H](CCC(=O)O)C(=O)O)C(=O)O)[C@H]1c1cccnc1` [compound 3], for which the EC50 was 1.26e-08 M in [1] and 1e-07 M in [2] (setting [10]).

Turning to `CN1C(=O)C[C@H](C(=O)NCCO[C@H]2CC[C@H](OCCCC(=O)N[C@H]3CC[C@H](C(=O)N[C@@H](Cc4ccc5ccccc5c4)C(=O)NCCCC[C@H](NC(=O)N[C@@H](CCC(=O)O)C(=O)O)C(=O)O)CC3)CC2)[C@H]1c1cccnc1` [compound 1], the EC50 was 3.98e-11 M in experiment [3] (setting [11]); 1.58e-10 M in [3] (setting [12]); 2.51e-10 M in experiment [1]; 1.58e-10 M in experiment [2] (setting [10]); 1.58e-11 M in experiment [2] (anti-cotinine CAR-NK, PSMA-expressing target cells, read-out: IFNγ Production pEC50 (CAR-NK) (converted)); 1.58e-10 M in experiment [2] (anti-cotinine CAR-T, PSMA-expressing target cells, read-out: IFNγ Production pEC50 (CAR-T) (converted)).

On to `CN1C(=O)C[C@H](C(=O)NCCO[C@H]2CC[C@H](OCCCC(=O)N[C@H]3CC[C@H](C(=O)NCCNC(=O)[C@H](Cc4ccccc4)NC(=O)[C@H](Cc4ccccc4)NC(=O)CCCCCCCNC(=O)CC[C@H](NC(=O)N[C@@H](CCC(=O)O)C(=O)O)C(=O)O)CC3)CC2)[C@H]1c1cccnc1` [compound 2], for which the EC50 in experiment [1] was 3.98e-09 M; in [2] (setting [10]), 5.01e-08 M.

For the molecule `CN(CCNC(=O)[C@H]1CC[C@H](NC(=O)CCCO[C@H]2CC[C@H](OCCNC(=O)[C@H]3CC[C@H](NC(=O)CCCO[C@H]4CC[C@H](OCCNC(=O)[C@H]5CC(=O)N(C)[C@@H]5c5cccnc5)CC4)CC3)CC2)CC1)c1ccc2nccc(C(=O)NCC(=O)N3CC(F)(F)C[C@H]3C#N)c2c1` [compound 7], the EC50 in experiment [4] (setting [11]) is 5.01e-10 M; in [4] (setting [12]), 2e-10 M; in [5] (setting [13]) it was 5.01e-11 M; in [5] (setting [14]) it was 1e-09 M.

As for `CN1C(=O)C[C@H](C(=O)NCCO[C@H]2CC[C@H](OCCCC(=O)N[C@H]3CC[C@H](C(=O)NCCNC(=O)CC[C@H](NC(=O)N[C@@H](CCC(=O)O)C(=O)O)C(=O)O)CC3)CC2)[C@H]1c1cccnc1` [compound 4], the EC50 in [1] was 1e-08 M; in experiment [2] (setting [10]), 5.01e-08 M.

For the molecule `CN1C(=O)C[C@H](C(=O)NCCO[C@H]2CC[C@H](OCCCC(=O)N[C@H]3CC[C@H](C(=O)NCCNC(=O)CC[C@H](NC(=O)c4ccc(NCc5cnc6nc(N)[nH]c(=O)c6n5)cc4)C(=O)O)CC3)CC2)[C@H]1c1cccnc1` [compound 6], the EC50 in [6] (setting [13]) is 2.51e-12 M; in experiment [6] (setting [14]), 1.58e-08 M; in [7] (setting [11]), 1e-09 M. For the same molecule, in experiment [7] (anti-cotinine CAR-T), the “Cell Titler Glo pEC50 (CAR-T)” value is on record as “Inactive”.

As for `CN1C(=O)C[C@H](C(=O)NCCO[C@H]2CC[C@H](OCCCC(=O)N[C@H]3CC[C@H](C(=O)N4CCN(c5cccc([C@H](CC(=O)O)CN6CC[C@@H](CCc7ccc8c(n7)NCCC8)C6)c5)CC4)CC3)CC2)[C@H]1c1cccnc1` [compound 5], the EC50 is 5.01e-10 M in [8] (setting [13]), 6.31e-10 M in experiment [8] (setting [14]) and 2.51e-10 M in experiment [9].
